# In PubChem BioAssay AID651684 (Sanford-Burnham Center for Chemical Genomics, 2012):
# Active and inactive are the calls of the source.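 How the source made its calls: active means any single replicate giving an EC50 below 30 µM; inactive means the rest.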
# Tested on: Pro5-aDG cells, alpha-DG glycosylation, IIH6 AlphaLISA
# Assay: potency of alpha-dystroglycan glycosylation enhancers – Pro5-aDG cells, AlphaLISA, dose response (AID 651684)
row,Structure (SMILES),EC50
1,Cc1nc(SCC(=O)Nc2cc(C(N)=O)cc(C(N)=O)c2)c2c(C)c(C)sc2n1,28.5 µM
2,Cc1cc(Br)ccc1OCCCCNC(C)(C)C,12.2 µM
3,Brc1cccc(-c2nc3c4ccccc4ccn3c2CC2CCCCC2)c1,23.7 µM
4,CC(C)OC(=O)CN1C(=O)C(=O)c2ccccc21,6.56 µM
5,CCc1ccc(C2c3[nH]c4ccccc4c3CCN2C(=O)CN2CCN(CC)CC2)cc1 (configuration not stated),> 80 µM (inactive)
6,COc1ccc(CN2CCC(C(=O)Nc3ccc(Oc4cccnc4)cc3)CC2)c(C)c1C,8.89 µM
7,CCOc1ccc(-n2cc(C(=O)N3CCCCCC3)c3cc(OC)c(OC)cc3c2=O)cc1,5.6 µM
8,COc1cc(CNC(=O)Nc2nc(C(N)Cc3ccc(Cl)cc3)cs2)cc(OC)c1OC (configuration not stated),> 80 µM (inactive)
9,O=C1C(=O)N(CCS(=O)(=O)c2ccccc2)c2ccc(F)cc21,9.36 µM
10,CNc1nc(-c2c[nH]c3ccccc23)cs1,4.99 µM
11,CC1CCCN(S(=O)(=O)c2ccc(C(=O)Nc3sc4c(c3C(N)=O)CCN(C)C4)cc2)C1 (configuration not stated),12.3 µM
12,CCCn1c(=N)n(CC(=O)c2ccc(Cl)c(Cl)c2)c2ccccc21,31.2 µM (inactive)
13,CCCn1c(=N)n(CC(=O)c2ccc(Cl)cc2)c2ccccc21,33.6 µM
14,O=C1C(Cl)=C(NCc2ccco2)C(=O)c2ccccc21,4.97 µM
15,CN1CCN(S(=O)(=O)c2cccc(C(=O)Nc3sccc3C#N)c2)CC1,37.6 µM
16,O=C(CNC(=O)c1ccccc1Cl)N/N=C/c1ccc([N+](=O)[O-])s1,7.48 µM
17,COc1cc(CNCCN(C)C)ccc1OCc1c(F)cccc1Cl,18 µM
18,C/C(=N/NC(=O)C(O)(c1ccccc1)c1ccccc1)c1ccc([N+](=O)[O-])o1,12.7 µM
19,CCN(CC)CCn1c(=N)n(CC(=O)c2ccc(C)cc2)c2ccccc21,24.5 µM
20,C/C=C/c1ccc(OCCCNC2CCCC2)c(OC)c1,11.7 µM
21,CCCCCOc1ccc(/C(C)=N/NC2=NCCN2)cc1,5.81 µM

row,Structure (SMILES),EC50
1,CN1N=C(N)c2cn(C3OC(COP(=O)(O)O)C(O)C3O)c3ncnc1c23 (configuration not stated),35.1 µM (inactive)
2,CN(C)CCCNC(=O)/C=C/c1ccc(OCc2c(F)cccc2Cl)cc1,9.37 µM
3,CC(C)Oc1ccc(OCCCN2CCCCCC2)cc1,12.4 µM
4,c1ccc2c(-c3cc(C4CCNCC4)[nH]n3)cccc2c1,> 80 µM (inactive)
5,CC(=O)Oc1c(Cl)cc(N(C(C)=O)S(=O)(=O)c2ccccc2)c2ccccc12,3.17 µM
6,CCOc1ccc(N2CC(C(=O)N3CCN(c4ccccn4)CC3)CC2=O)cc1 (configuration not stated),11.8 µM
7,O=C(Nc1cccc2ccccc12)c1ccc([N+](=O)[O-])s1,6.88 µM
8,CN1CCN(c2ccc(S(=O)(=O)N3CCCCC3)cc2NC(=O)/C=C/c2ccc(OC(F)F)cc2)CC1,> 80 µM (inactive)
9,Brc1ccc2ncnc(NCc3ccccc3)c2c1,3.34 µM
10,CCCC[n+]1ccn(C2=C([O-])c3ccccc3C(=O)/C2=N\S(=O)(=O)c2ccc(Br)cc2)c1,6.95 µM
11,COc1cc(/C=C/C(=O)Nc2nc3ccc(S(=O)(=O)NC(C)C)cc3s2)cc(OC)c1OC,9.21 µM
12,Cc1cccc(CN2CCC(CNC(=O)Nc3ccc(F)c(Cl)c3)CC2)c1,8.57 µM
13,CCOC(=O)N/N=C\c1ccc([N+](=O)[O-])s1,12.3 µM
14,CCCCN1CCc2c1nc1ccc(Br)cc1c2N,> 80 µM (inactive)
15,COc1ccccc1NC(=O)Nc1nc(C(N)Cc2ccccc2)cs1 (configuration not stated),> 80 µM (inactive)
16,Cc1cc(C)n(-c2nc(NCCCN(C)C)c3c4c(sc3n2)CCCC4)n1,16.1 µM
17,CCC(C)Nc1nc(-c2c[nH]c3ccccc23)cs1 (configuration not stated),4.36 µM
18,CC(C)c1ccc(-c2cc(C(=O)N3CCOCC3)c3cc(Br)ccc3n2)cc1,6.31 µM
19,COCCN1CCC(CNCc2cn(-c3cc(C)ccc3C)nc2-c2ccccc2)C1 (configuration not stated),> 80 µM (inactive)
20,CCCCCOc1ccc(NC(=O)C(=O)NCC2CCCN2CC)cc1 (configuration not stated),8.54 µM
21,CN(C)CCCNS(=O)(=O)c1ccc(NC2CCCCCC2)c([N+](=O)[O-])c1,6.11 µM

row,Structure (SMILES),EC50
1,CC(=O)c1ccc(N2CCN(C(=O)Nc3ccc(C(C)C)cc3)CC2)cc1,12.8 µM
2,CCCCN(C)CCNC(=O)c1cc(-c2cccnc2)nc2ccc(S(=O)(=O)N3CCC(C)CC3)cc12,> 80 µM (inactive)
3,C=CCn1c(=N)n(CC(=O)c2ccc(Cl)cc2)c2ccccc21,41.6 µM (inactive)
4,CCCCCNCC(=O)Nc1cccc(C(=O)Nc2cccc(C(F)(F)F)c2)c1,11.6 µM
5,CC(C)(C)c1ccc(C(=O)Nc2ccc(C(=O)NCc3cccnc3)cc2)cc1,2.48 µM
6,CC(C)N1CCN(c2ccc(OCC3COC(Cn4cncn4)(c4ccc(Cl)cc4Cl)O3)cc2)CC1 (configuration not stated),9.77 µM
7,CCOc1ccc(NC(=O)c2ccc(F)c(S(=O)(=O)N3CCN(c4ccccn4)CC3)c2)cc1,> 80 µM (inactive)
8,N#Cc1ccsc1NC(=O)c1ccc2ncsc2c1,42.7 µM
9,Cc1ccc(NC(=O)c2ccc([N+](=O)[O-])s2)cc1S(=O)(=O)N1CCOCC1,5.92 µM
10,COCCNc1nc(NCCOc2ccccc2)c2sc(-c3ccccc3)cc2n1,7.86 µM
11,N=c1c2c(ncn1CCCO)Oc1c(ccc3ccccc13)C2c1ccccc1 (configuration not stated),> 80 µM (inactive)
12,Cc1cc(NC2=CC(=O)C(=O)c3ccccc32)no1,6.66 µM
13,Cc1cncn1CCc1nc2c3ccccc3nc(SCC(=O)Nc3cccc(Cl)c3)n2n1,> 80 µM (inactive)
14,Cc1ccnc(-n2c(C)nc3ccccc3c2=O)c1,> 80 µM (inactive)
15,Cc1cccc(/C=C2/Sc3ccc(C(=O)NCCN4CCCC4)cc3NC2=O)c1,> 80 µM (inactive)
16,N#Cc1ccsc1NC(=O)c1cccc(-n2cnnn2)c1,20.7 µM
17,N=c1n(CCN2CCOCC2)c2ccccc2n1CC(=O)c1ccc(Cl)c(Cl)c1,47.1 µM (inactive)
18,CCOC(=O)c1cc(-c2ccc(F)cc2)n(CCC(=O)NC2CCN(Cc3ccccc3)CC2)c1C,> 80 µM (inactive)
19,O=C(Nc1ccccc1F)c1ccc([N+](=O)[O-])s1,8.89 µM
20,Cc1cccc(NC(=S)N(CCCN2CCCC2)Cc2cccn2Cc2ccc(Cl)cc2)c1,> 80 µM (inactive)
21,COc1cc2[nH]c3c(=O)n4c(nc3c2cc1OC)SCCC4,6.47 µM

row,Structure (SMILES),EC50
1,CC1CCCN(CCCNC(=O)c2nn(C)c3c2CSc2ccccc2-3)C1 (configuration not stated),8.18 µM
2,CC(C)n1cc(CN2CCCC(C(=O)Nc3cccc(-c4cc5ccccc5[nH]4)c3)C2)cn1 (configuration not stated),> 80 µM (inactive)
3,CS(=O)(=O)c1ccc(Nc2nc(C(N)Cc3ccc(Cl)cc3)cs2)cc1 (configuration not stated),8.93 µM
4,CC(C)COc1ccc(CSCCNC(=S)Nc2ccccc2)cc1,6.37 µM
5,Cn1c(=N)n(CC(=O)c2ccc(Br)cc2)c2ccccc21,42.7 µM (inactive)
6,CCC(c1nnnn1Cc1cccs1)N1CCN(c2nc3ccccc3s2)CC1 (configuration not stated),22.6 µM
7,Cc1cc(NCc2ccccn2)n2ncc(-c3ccc(Cl)cc3)c2n1,3.48 µM
8,COc1ccc(Cc2nc(-c3ccc(NC(=O)c4cccnc4)cc3)no2)cc1,1.52 µM
9,NC(c1csc(Nc2cc(Oc3ccccc3)ncn2)n1)C1CCCCC1 (configuration not stated),7.32 µM
10,N#Cc1ccc(-c2nc3c4ccccc4ccn3c2CC2CCCCC2)cc1,7.97 µM
11,O=C(CNC(=O)c1ccccc1)N/N=C/c1ccc([N+](=O)[O-])s1,6.46 µM
12,CN1CCN(c2ncnc3c2ncn3[C@H]2CN(Cc3ccc(-c4ccccc4)cc3)C[C@@H](CO)O2)CC1,16.1 µM
13,CCn1cc(CN2CCC(C(=O)Nc3cccc(-c4cccc(Cl)c4)c3)CC2)c(C)n1,6.99 µM
14,COc1cccc(C(=O)Cn2c(=N)n(C)c3ccccc32)c1,58.4 µM (inactive)
15,CCc1ccc(C(CNC(=O)c2ccc3c(=O)n(-c4ccccc4F)c(=S)[nH]c3c2)N(C)C)cc1 (configuration not stated),1.9 µM
16,CC(C)c1ccc(NC(=O)C2Cc3c(-c4ccc(Cl)cc4)ccnc3O2)cc1 (configuration not stated),3.98 µM
17,CCn1c(=N)n(CC(=O)c2ccc(Cl)c(Cl)c2)c2ccccc21,32 µM (inactive)
18,c1cncc(-c2nnc(-c3cccnc3)nn2)c1,8.73 µM
19,CCc1nc2ccc(C(=O)NC3CCN(Cc4ccccc4)CC3)cn2c1N(C)Cc1cc2ccccc2s1,6.07 µM
